Data: the NIST ThermoML archive (doi:10.1021/acs.jced.8b01095)
Numbers after ± are expanded uncertainties.

Assay: xn = mol fraction of the nth substance listed
Conditions: Liquid; for viscosity: 2 kPa, Falling or rolling sphere viscometry; for speed of sound / mass density: 100 kPa; for speed of sound: Single path-length method; for mass density: Vibrating tube method

## CNc1ccccc1 [N-methylaniline] + CCCCn1cc[n+](C)c1.F[P-](F)(F)(F)(F)F
298.15 K, x2 = 0
  viscosity: 1.94 ± 0.62 mPa·s
  speed of sound: 1564.5 ± 3 m/s
  mass density: 982.7 ± 1 kg/m3
298.15 K, x2 = 0.1076
  viscosity: 5.42 ± 1.9 mPa·s
  speed of sound: 1558.7 ± 3.1 m/s
  mass density: 1064.1 ± 1 kg/m3
298.15 K, x2 = 0.2146
  viscosity: 11.47 ± 4 mPa·s
  speed of sound: 1549.8 ± 3.1 m/s
  mass density: 1128.52 ± 1 kg/m3
298.15 K, x2 = 0.3053
  viscosity: 22.49 ± 6.3 mPa·s
  speed of sound: 1538.2 ± 3.1 m/s
  mass density: 1174.31 ± 1 kg/m3
298.15 K, x2 = 0.3985
  viscosity: 37.19 ± 9.7 mPa·s
  speed of sound: 1516.1 ± 3.1 m/s
  mass density: 1214.23 ± 1 kg/m3
298.15 K, x2 = 0.4805
  viscosity: 53.52 ± 12 mPa·s
  speed of sound: 1497.1 ± 3.1 m/s
  mass density: 1243.22 ± 1 kg/m3
298.15 K, x2 = 0.5766
  viscosity: 71.45 ± 16 mPa·s
  speed of sound: 1481.9 ± 3.1 m/s
  mass density: 1272.38 ± 1.1 kg/m3
298.15 K, x2 = 0.6793
  viscosity: 95.21 ± 19 mPa·s
  speed of sound: 1468.8 ± 3.1 m/s
  mass density: 1299.48 ± 1.1 kg/m3
298.15 K, x2 = 0.7871
  viscosity: 126.78 ± 33 mPa·s
  speed of sound: 1457.9 ± 3.1 m/s
  mass density: 1325.04 ± 1.1 kg/m3
298.15 K, x2 = 0.9009
  viscosity: 187.23 ± 49 mPa·s
  speed of sound: 1447.2 ± 3.1 m/s
  mass density: 1348.44 ± 1.1 kg/m3
303.15 K, x2 = 0
  viscosity: 1.73 ± 0.62 mPa·s
  speed of sound: 1546.1 ± 3 m/s
  mass density: 978.59 ± 1 kg/m3
303.15 K, x2 = 0.1076
  viscosity: 4.31 ± 1.2 mPa·s
  speed of sound: 1542.2 ± 3.1 m/s
  mass density: 1060.11 ± 1 kg/m3
303.15 K, x2 = 0.2146
  viscosity: 9.24 ± 2.1 mPa·s
  speed of sound: 1534.3 ± 3.1 m/s
  mass density: 1124.54 ± 1 kg/m3
303.15 K, x2 = 0.3053
  viscosity: 16.65 ± 4.5 mPa·s
  speed of sound: 1523.4 ± 3.1 m/s
  mass density: 1170.33 ± 1 kg/m3
303.15 K, x2 = 0.3985
  viscosity: 27.2 ± 7.3 mPa·s
  speed of sound: 1502.3 ± 3.1 m/s
  mass density: 1210.27 ± 1 kg/m3
303.15 K, x2 = 0.4805
  viscosity: 39.53 ± 10 mPa·s
  speed of sound: 1484.1 ± 3.1 m/s
  mass density: 1239.24 ± 1 kg/m3
303.15 K, x2 = 0.5766
  viscosity: 53.54 ± 13 mPa·s
  speed of sound: 1469.4 ± 3.1 m/s
  mass density: 1268.37 ± 1.1 kg/m3
303.15 K, x2 = 0.6793
  viscosity: 74.21 ± 17 mPa·s
  speed of sound: 1456.7 ± 3.1 m/s
  mass density: 1295.43 ± 1.1 kg/m3
303.15 K, x2 = 0.7871
  viscosity: 96.09 ± 23 mPa·s
  speed of sound: 1445.9 ± 3.1 m/s
  mass density: 1320.94 ± 1.1 kg/m3
303.15 K, x2 = 0.9009
  viscosity: 140.54 ± 34 mPa·s
  speed of sound: 1435.4 ± 3.1 m/s
  mass density: 1344.33 ± 1.1 kg/m3
308.15 K, x2 = 0
  viscosity: 1.55 ± 0.61 mPa·s
  speed of sound: 1528.3 ± 3 m/s
  mass density: 974.47 ± 1 kg/m3
308.15 K, x2 = 0.1076
  viscosity: 3.52 ± 0.98 mPa·s
  speed of sound: 1525.9 ± 3.1 m/s
  mass density: 1056.11 ± 1 kg/m3
308.15 K, x2 = 0.2146
  viscosity: 7.54 ± 1.7 mPa·s
  speed of sound: 1518.9 ± 3.1 m/s
  mass density: 1120.57 ± 1 kg/m3
308.15 K, x2 = 0.3053
  viscosity: 12.57 ± 3.2 mPa·s
  speed of sound: 1508.8 ± 3.1 m/s
  mass density: 1166.34 ± 1 kg/m3
308.15 K, x2 = 0.3985
  viscosity: 20.33 ± 5.1 mPa·s
  speed of sound: 1488.9 ± 3.1 m/s
  mass density: 1206.32 ± 1 kg/m3
308.15 K, x2 = 0.4805
  viscosity: 29.79 ± 7.1 mPa·s
  speed of sound: 1471.1 ± 3.1 m/s
  mass density: 1235.26 ± 1 kg/m3
308.15 K, x2 = 0.5766
  viscosity: 40.88 ± 9.1 mPa·s
  speed of sound: 1456.7 ± 3.1 m/s
  mass density: 1264.35 ± 1.1 kg/m3
308.15 K, x2 = 0.6793
  viscosity: 53.97 ± 13 mPa·s
  speed of sound: 1444.4 ± 3.1 m/s
  mass density: 1291.38 ± 1.1 kg/m3
308.15 K, x2 = 0.7871
  viscosity: 72.45 ± 16 mPa·s
  speed of sound: 1433.9 ± 3.1 m/s
  mass density: 1316.84 ± 1.1 kg/m3
308.15 K, x2 = 0.9009
  viscosity: 107.54 ± 24 mPa·s
  speed of sound: 1423.5 ± 3.1 m/s
  mass density: 1340.21 ± 1.1 kg/m3
313.15 K, x2 = 0
  viscosity: 1.4 ± 0.61 mPa·s
  speed of sound: 1511.5 ± 3 m/s
  mass density: 970.36 ± 1 kg/m3
313.15 K, x2 = 0.1076
  viscosity: 2.95 ± 0.84 mPa·s
  speed of sound: 1506.7 ± 3.1 m/s
  mass density: 1052.12 ± 1 kg/m3
313.15 K, x2 = 0.2146
  viscosity: 6.01 ± 1.4 mPa·s
  speed of sound: 1500.8 ± 3.1 m/s
  mass density: 1116.59 ± 1 kg/m3
313.15 K, x2 = 0.3053
  viscosity: 9.66 ± 2.2 mPa·s
  speed of sound: 1492.6 ± 3.1 m/s
  mass density: 1162.35 ± 1 kg/m3
313.15 K, x2 = 0.3985
  viscosity: 15.49 ± 3.7 mPa·s
  speed of sound: 1475.5 ± 3.1 m/s
  mass density: 1202.36 ± 1 kg/m3
313.15 K, x2 = 0.4805
  viscosity: 22.87 ± 5.2 mPa·s
  speed of sound: 1458 ± 3.1 m/s
  mass density: 1231.27 ± 1 kg/m3
313.15 K, x2 = 0.5766
  viscosity: 31.76 ± 6.7 mPa·s
  speed of sound: 1444.2 ± 3.1 m/s
  mass density: 1260.34 ± 1.1 kg/m3
313.15 K, x2 = 0.6793
  viscosity: 42.71 ± 8.3 mPa·s
  speed of sound: 1432.3 ± 3.1 m/s
  mass density: 1287.33 ± 1.1 kg/m3
313.15 K, x2 = 0.7871
  viscosity: 57.32 ± 11 mPa·s
  speed of sound: 1422.2 ± 3.1 m/s
  mass density: 1312.75 ± 1.1 kg/m3
313.15 K, x2 = 0.9009
  viscosity: 83.73 ± 18 mPa·s
  speed of sound: 1411.9 ± 3.1 m/s
  mass density: 1336.1 ± 1.1 kg/m3
318.15 K, x2 = 0
  viscosity: 1.27 ± 0.61 mPa·s
  speed of sound: 1492.8 ± 3 m/s
  mass density: 966.24 ± 1 kg/m3
318.15 K, x2 = 0.1076
  viscosity: 2.5 ± 0.78 mPa·s
  speed of sound: 1491.1 ± 3.1 m/s
  mass density: 1048.13 ± 1 kg/m3
318.15 K, x2 = 0.2146
  viscosity: 5 ± 1.1 mPa·s
  speed of sound: 1488.2 ± 3.1 m/s
  mass density: 1112.61 ± 1 kg/m3
318.15 K, x2 = 0.3053
  viscosity: 7.84 ± 1.6 mPa·s
  speed of sound: 1479.8 ± 3.1 m/s
  mass density: 1158.36 ± 1 kg/m3
318.15 K, x2 = 0.3985
  viscosity: 12.02 ± 2.8 mPa·s
  speed of sound: 1462.1 ± 3.1 m/s
  mass density: 1198.4 ± 1 kg/m3
318.15 K, x2 = 0.4805
  viscosity: 17.73 ± 4.1 mPa·s
  speed of sound: 1445.1 ± 3.1 m/s
  mass density: 1227.29 ± 1 kg/m3
318.15 K, x2 = 0.5766
  viscosity: 25.05 ± 5.2 mPa·s
  speed of sound: 1431.8 ± 3.1 m/s
  mass density: 1256.33 ± 1 kg/m3
318.15 K, x2 = 0.6793
  viscosity: 34.26 ± 6.3 mPa·s
  speed of sound: 1420.3 ± 3.1 m/s
  mass density: 1283.28 ± 1.1 kg/m3
318.15 K, x2 = 0.7871
  viscosity: 46.02 ± 8.5 mPa·s
  speed of sound: 1410.4 ± 3.1 m/s
  mass density: 1308.65 ± 1.1 kg/m3
318.15 K, x2 = 0.9009
  viscosity: 66.23 ± 13 mPa·s
  speed of sound: 1400.5 ± 3.1 m/s
  mass density: 1331.99 ± 1.1 kg/m3
323.15 K, x2 = 0
  viscosity: 1.16 mPa·s
  speed of sound: 1476.2 ± 3 m/s
  mass density: 962.13 ± 1 kg/m3
323.15 K, x2 = 0.1076
  viscosity: 2.07 ± 0.66 mPa·s
  speed of sound: 1473.9 ± 3.1 m/s
  mass density: 1044.13 ± 1 kg/m3
323.15 K, x2 = 0.2146
  viscosity: 4.02 ± 0.95 mPa·s
  speed of sound: 1471.7 ± 3.1 m/s
  mass density: 1108.64 ± 1 kg/m3
323.15 K, x2 = 0.3053
  viscosity: 6.32 ± 1.3 mPa·s
  speed of sound: 1466.1 ± 3.1 m/s
  mass density: 1154.38 ± 1 kg/m3
323.15 K, x2 = 0.3985
  viscosity: 9.48 ± 1.9 mPa·s
  speed of sound: 1448.8 ± 3.1 m/s
  mass density: 1194.44 ± 1 kg/m3
323.15 K, x2 = 0.4805
  viscosity: 13.62 ± 3.3 mPa·s
  speed of sound: 1432.3 ± 3.1 m/s
  mass density: 1223.3 ± 1 kg/m3
323.15 K, x2 = 0.5766
  viscosity: 19.75 ± 4.2 mPa·s
  speed of sound: 1419.6 ± 3.1 m/s
  mass density: 1252.31 ± 1 kg/m3
323.15 K, x2 = 0.6793
  viscosity: 27.82 ± 5.2 mPa·s
  speed of sound: 1408.4 ± 3.1 m/s
  mass density: 1279.23 ± 1.1 kg/m3
323.15 K, x2 = 0.7871
  viscosity: 37.45 ± 6 mPa·s
  speed of sound: 1398.9 ± 3.1 m/s
  mass density: 1304.56 ± 1.1 kg/m3
323.15 K, x2 = 0.9009
  viscosity: 53.14 ± 8.6 mPa·s
  speed of sound: 1389.2 ± 3.1 m/s
  mass density: 1327.88 ± 1.1 kg/m3
